# From a melting point compilation (Tetko et al.)
row,melting point [°C],Compound
1,181 to 183,O=C(O)CC(=O)Nc1nccs1
2,235 to 237,O=C(O)c1cnc(-c2ccc(Cl)s2)s1
3,74 to 76,COc1cc(C)c(C(C)=O)cc1C
4,62 to 64,Nc1ccc(Oc2ccccn2)cc1
5,129 to 131,NS(=O)(=O)c1ccc(CNCC(F)(F)F)cc1
6,129 to 131,Cc1cc(Cl)c(S(=O)(=O)Cl)cc1[N+](=O)[O-]
7,164 to 166,O=C(O)c1sc(-c2ccccc2)cc1OCC(=O)N1CCCCC1
8,121 to 123,CS(=O)(=O)Cc1cccc(N)c1
9,292 to 294,O=c1[nH]cnc2cc(F)c([N+](=O)[O-])cc12
10,48 to 50,CC(=O)c1cc([N+](=O)[O-])ccc1F
11,105 to 107,CC(NS(=O)(=O)c1ccccc1C(F)(F)F)C(=O)O (stereo not given)
12,148 to 150,Clc1nc(-c2ccsc2)nc2sc3c(c12)CCCC3
13,82 to 84,CCOC(=O)CN(C)c1ccncc1[N+](=O)[O-]
14,52 to 54,O=[N+]([O-])c1ccccc1OCC1CO1 (stereo not given)
15,162 to 164,CNc1ccc(C)nn1
16,233 to 235,Nc1c(Cl)cc(Br)cc1C(=O)O
17,97 to 99,Nc1ncc(Cc2ccccc2F)s1
18,105 to 107,O=C(O)CC(O)(c1ccccc1)C1CC1 (stereo not given)
19,132 to 134,NC(=NO)c1cccc(Br)c1
20,309 to 311,CNC1(C(=O)O)CCCCC1
21,82 to 84,O=C(CCl)NCc1cn(Cc2ccccc2)nc1-c1ccccc1
22,149 to 151,N#Cc1ccc(N2CCOC2=O)cc1
23,155 to 159,COc1cc(C(=O)O)cc(OC)c1OCc1ccccc1
24,177 to 179,Cc1ccccc1-c1nn(-c2ccccc2)cc1C(=O)O

row,melting point [°C],Compound
1,109 to 111,Nc1ccccc1Sc1nncs1
2,99 to 101,S=C(Nc1ccccc1)N1CCCCC1
3,65 to 67,O=C(c1cccc(F)c1)c1cccc(Br)c1
4,259 to 261,CCCn1c(CCC(=O)O)nc2cc(S(N)(=O)=O)ccc21
5,111 to 113,O=S(=O)(Cl)c1ccc(Cl)c2ncccc12
6,174 to 176,Sc1nnc(Nc2ccccc2Cl)s1
7,112 to 114,CC(=O)N1c2ccc(S(=O)(=O)Cl)cc2CC1C (stereo not given)
8,69 to 71,COC(=O)Cc1ccccc1O
9,198 to 200,Nc1ccnc2ccnn12
10,99 to 101,OC1CCCC1N1CCN(c2cccc(Cl)c2)CC1 (stereo not given)
11,149 to 151,COc1ccccc1C1(C(=O)O)CCC1
12,275 to 277,NS(=O)(=O)c1cc(C(=O)O)cc2c1CCCC2
13,81 to 83,CCCN(CCC)C(=O)c1ccc(N)cc1
14,114 to 116,CCOC(=O)c1ccc(S(N)(=O)=O)nc1
15,179 to 181,Cc1ccc(O)c(C(=O)NO)c1
16,107 to 109,Nc1cccc(Oc2ccncc2)c1
17,61 to 63,FC(F)n1ccnc1COc1ccc(Br)cc1
18,210 to 212,O=C(O)c1c2c(cc([N+](=O)[O-])c1[N+](=O)[O-])OCCO2
19,156 to 158,NC(CC(=O)Nc1ccccc1)=NO
20,289 to 291,Cc1c(C(=O)O)sc2ccc(F)cc12
21,179 to 181,Cc1nn(CC(=O)O)c(C)c1[N+](=O)[O-]
22,108 to 110,COC(=O)c1ccc(CNC(=O)CCl)cc1
23,164 to 166,OCc1cc(Br)cc(CO)c1O
24,183 to 185,O=C(Nc1ccc(F)cc1)NC1CCNCC1

row,melting point [°C],Compound
1,179 to 181,O=C(O)CC1=NN(c2ccc(Cl)cc2Cl)C(=O)C1
2,165 to 167,COC(=O)CCSc1ccc([N+](=O)[O-])cc1C(=O)O
3,93 to 95,CCNC(=O)c1ccccc1N
4,127 to 129,COCCn1c(S)nc2ccccc21
5,114 to 116,NC(=O)c1sccc1-c1ccccc1
6,173 to 175,O=c1cc[nH]c2c(Br)cccc12
7,181 to 190,O=C(CCl)NC1CS(=O)(=O)CC1Cl (stereo not given)
8,144 to 146,C/C(=N\O)c1scnc1C
9,54 to 56,Clc1ncncc1I
10,174 to 176,CCN(CC)S(=O)(=O)c1cc(C(=O)O)n(C)c1
11,167 to 169,CS(=O)(=O)N1CC(C(=O)O)Oc2ccccc21 (stereo not given)
12,109 to 111,O=C(NCC1CCCCN1)c1ccccc1 (stereo not given)
13,239 to 241,CC1CCC(Cn2c(N)cc(=O)[nH]c2=O)CC1 (stereo not given)
14,217 to 219,CCC(=O)Nc1ccc(O)c(C(=O)O)c1
15,111 to 113,NCc1ccc(-n2cncn2)cc1Cl
16,176 to 178,Cn1ncnc1COc1ccc(S(N)(=O)=O)cc1
17,132 to 134,O=C(CCl)Nc1c(F)cc(F)cc1Br
18,125 to 127,Nc1cccc(NC(=O)CCn2ccnc2)c1
19,90 to 92,CC(C)(C)n1ncc(C#N)c1N
20,147 to 149,Cc1cc([N+](=O)[O-])ccc1NC(=O)CCCl
21,236 to 238,O=C(O)c1c(O)cc(=O)n2c1CCC2
22,110 to 112,Cc1ccc(Oc2ccc(N)cc2Cl)c(Br)c1
23,135 to 137,Cc1nn(Cc2ccccc2)c(C)c1C=NO
24,62 to 64,COc1ccc(F)cc1[N+](=O)[O-]

row,melting point [°C],Compound
1,144 to 146,CN(C)C(N)=S
2,115 to 117,Nc1nc(-c2ccccc2C(F)(F)F)cs1
3,186 to 188,Cc1nnc(S)n1N
4,172 to 174,O=C(O)c1cccn1Cc1ccccn1
5,153 to 155,Nc1ccc(N2CCN(C(=O)C3CC3)CC2)cn1
6,74 to 76,C=CCNc1nc(-c2ccccc2)cs1
7,199 to 201,Cc1ccc(-n2cnnn2)cc1NC(=O)OCC(F)(F)F
8,66 to 68,CC(C)CC(Cc1cccc(Br)c1)C(=O)O (stereo not given)
9,94 to 98,COC(=O)c1c(N)sc2c1CCCCC2
10,188 to 190,CCNc1ccc(S(=O)(=O)N2CCOCC2)cc1N
11,99 to 101,Cc1cc(CN)cc(C)c1O
12,187 to 189,CNS(=O)(=O)c1ccc(N)cc1OC
13,61 to 63,O=Cc1cscn1
14,67 to 69,N#CCCCN1CCOCC1
15,120 to 122,COC(=O)Cc1ccc(Oc2ccnc(C#N)c2)cc1
16,298 to 300,CN(C)c1ccc(/C=C/c2cc(C(=O)O)c3cc(Br)ccc3n2)cc1
17,231 to 233,CC1(c2ccncc2)NC(=O)NC1=O (stereo not given)
18,51 to 53,O=C1NCCS1
19,53 to 55,NC1CCN(C(=O)C2CC2)CC1
20,90 to 92,Cc1ccc(C(=O)c2ccccc2Cl)cc1
21,219 to 221,Nc1ccccc1N1C(=O)c2ccc(Br)cc2C1=O
22,126 to 128,N#Cc1cccc2cnccc12
23,168 to 170,CC(=O)NC(CC(N)=O)C(=O)O (stereo not given)
24,82 to 84,NC1CCN(c2ncccn2)CC1

row,melting point [°C],Compound
1,172 to 174,COC(=O)c1cc(C(C)(C)C)n[nH]1
2,253 to 255,O=C(Nc1cc(F)ccc1C(=O)O)c1ccoc1
3,107 to 109,CC(C)(C)C1CCc2[nH]c3ccc(Cl)cc3c2C1 (stereo not given)
4,122 to 124,CS(=O)(=O)c1ccc(F)c(S(=O)(=O)Cl)c1
5,99 to 101,CCc1cc(Cl)nc(-c2ccncc2)n1
6,90 to 92,C=CS(=O)(=O)c1cc(F)cc([N+](=O)[O-])c1
7,96 to 98,COC1(C(=O)O)CCN(C(=O)OC(C)(C)C)CC1
8,188 to 190,FC(F)Sc1ccc(Nc2nnc(S)s2)cc1
9,116 to 117,O=C(O)c1ccc(Br)cc1C(F)(F)F
10,49 to 51,N#CSCC(=O)c1ccccc1C(F)(F)F
11,71 to 73,Cc1ccccc1-n1c(C)cc(C=O)c1C
12,219 to 221,Cc1cc(C(=O)O)c(N)cc1F
13,142 to 144,NC(=O)CCCl
14,79 to 81,Cc1cc(I)ccc1[N+](=O)[O-]
15,165 to 167,O=C(O)C1CSC(c2cccc(Br)c2)N1 (stereo not given)
16,76 to 78,CCC1(C)CCNC(=O)CC1 (stereo not given)
17,130 to 132,CC(Cl)C(=O)Nc1ccc(C(F)(F)F)cc1 (stereo not given)
18,99 to 101,CC(=O)c1ccc(S(=O)(=O)N(C)C)cc1
19,316 to 318,NC(=O)c1ccc(=O)[nH]c1
20,180 to 182,O=C(NCc1ccccc1)c1cc2ccccc2cc1O
21,84 to 86,CC(=O)c1cccc(N2CCCS2(=O)=O)c1
22,173 to 175,O=C(NCCO)c1ccc([N+](=O)[O-])cc1Cl
23,169 to 171,Cn1nc[nH]c1=O
24,124 to 126,COC(=O)c1c(N)sc(C)c1C

row,melting point [°C],Compound
1,200 to 202,Nc1cccc(-c2nnc3n2CCCCC3)c1
2,164 to 166,CCOC(=O)/C(C#N)=C\Nc1cc(F)ccc1F
3,52 to 54,Fc1ccc(NCc2ccccn2)c(F)c1
4,76 to 78,Cc1noc(COCC(=O)O)n1
5,122 to 124,CCn1cc(C(=O)O)c(C(C)C)n1
6,145 to 147,Cc1ccc(-n2nc(C)c(NC(=O)OCC(F)(F)F)c2C)cc1
7,232 to 234,CN(C)S(=O)(=O)c1ccc2[nH]c(CO)nc2c1
8,171 to 173,Cn1c(S)nnc1C(F)F
9,106 to 108,Cc1nnc(Br)s1
10,159 to 161,CCOC(=O)c1c(N)c(C#N)cn1C
11,153 to 155,CC(Cl)C(=O)Nc1c(Cl)cc(Cl)cc1Cl (stereo not given)
12,154 to 156,ON=Cc1ccc(OCc2ccccn2)cc1
13,152 to 154,CSc1nc(C)cc(C(=O)O)n1
14,119 to 121,CC1CN(C(=O)c2ccccc2N)CC(C)O1 (stereo not given)
15,125 to 127,Cc1cc(C)cc(-n2[nH]c(-c3ccco3)cc2=N)c1
16,105 to 107,CN(C)C(=O)c1cc(S(=O)(=O)Cl)cn1C
17,214 to 216,Cc1[nH]c(C(=O)O)c(C)c1S(N)(=O)=O
18,51 to 53,O=Cc1ccc(-c2c(F)cccc2F)o1
19,115 to 117,CC(Cl)C(=O)Nc1cccc([N+](=O)[O-])c1 (stereo not given)

row,Compound,melting point [°C]
1,O=C(O)C1CC12CCOc1ccccc12 (stereo not given),159 to 161
2,CC(C)CCn1cc(C(=O)O)nn1,187 to 189
3,Nc1cc(Cl)c(N)cc1Cl,164 to 166
4,CC(=O)N1CCC(C(=O)O)(c2ccccc2)CC1,207 to 209
5,N#CC1CNCCN1Cc1ccccc1 (stereo not given),98 to 100
6,ClCc1nc2cccnc2s1,65 to 67
